Results published in US20050070555A1, “Aroyl pyridinones” (Bayer HealthCare AG, priority 2001, published 2005).

Target: p38 map kinase (Homo sapiens, UniProt Q16539)
Test: P 38 Map Kinase Assay (SPA [33-P] serine/threonine kinase assay)
Format: biochemical
Settings: 10 μM ATP, 2.5 μM biotinylated myelin basic protein substrate, 500 ng/well enzyme, 90 min, 30° C.
Source text: The assay makes use of the serine/theonine protein kinase SPA [33-P]+assay kit from Amersham Phamacia Biotech. The assay is a homogeneous technique using SPA technology for the quantification of serine threonine kinase activity.
It is based on the p38 map kinase catalysed transfer of the γ-phosphate group of the [γ-^33P] […] to the substrate, biotinylated myelin basic protein (MBP). The resulting [^33P]-labelled biotinylated product is trapped on a PVT SPA bead containing scintillant which has been surface coated with streptavidin.
The beads are allowed to settle to eliminate high background, and therefore only ^33P labelled product attached to the SPA bead is detected.
The assay is carried out in the presence and absence of test compounds to determine their effect on p38 map kinase activity.
A test protocol is as follows:
• 1. SPA assay kit (Amersham). Components: • Assay buffer (store frozen) • Stop solution (store frozen). • Streptavidin coated SPA beads—reconstitute with 5 mls of PBS. (50 mg/ml). (Store in fridge) • 2. p 38 map kinase enzyme SCRD (500 μg/ml)—aliquoted in 1.5 mls. • dilute 1:10 to 50 μg/ml • 1 plate—110 μl (stock 500 μg/ml)+990 μl PBS. • 3. Assay reagent: • for 1 plate: 504 μl Assay buffer (500 Mm MOPS pH 7.2, 10 μM ATP, 50 mM MgCl2, 25 μM biotinylated myelin basic protein (MBP)). • 2513.4 μl Water • 1.1 μl 33-p-ATP (10 μCi/ul) (on activity date/adjust for activity date) • 4.534 μl×10^-2M ATP in water • 4. Stop solution: • for 1 plate: 265.92 μl streptavidin coated beads (50 mg/ml) • 1651.684 μl stop buffer (500 μM ATP, 50 mM EDTA 1% Triton X-100) • 7084.32 μl PBS. • 1. Add 10 μl compound Dilutons (5× final conc) Test wells. • 2. Add 10 μl 12.5% DMSO to control/blank wells. • 3. Add 10 μl enzyme (50 μg/ml) final conc 500 ng/well • 4. Add 10 μl PBS to blank wells. • 5. Add 30 μl of assay reagent to each well. (final conc 10 μM ATP, 2.5 μM substrate) • 6. Mix well on plate shaker. • 7. Incubate 90 min (30° C.) • 8. Add 75 μl of stop solution to each well (final conc 55 μM ATP) • 9. Spin plate: −3 min/1600 rpm/20° C. (alternatively leave to settle overnight) • 10. Read in Microbeta, Protocol SPA paralux 3.

p38 map kinase, sequence (Q16539 whole entry): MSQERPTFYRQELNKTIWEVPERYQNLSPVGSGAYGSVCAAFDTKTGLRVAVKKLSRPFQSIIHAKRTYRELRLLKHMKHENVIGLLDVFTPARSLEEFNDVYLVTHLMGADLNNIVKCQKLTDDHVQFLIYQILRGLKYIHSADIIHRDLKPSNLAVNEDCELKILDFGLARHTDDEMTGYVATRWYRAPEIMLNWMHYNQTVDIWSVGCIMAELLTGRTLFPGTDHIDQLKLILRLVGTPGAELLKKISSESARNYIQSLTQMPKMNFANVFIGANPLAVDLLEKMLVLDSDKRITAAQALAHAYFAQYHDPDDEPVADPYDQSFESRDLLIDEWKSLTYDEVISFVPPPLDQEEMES

Compound: O=C(c1cccc(Cl)c1)c1ccc(=O)n2c1N[C@@H]1CCCC[C@@H]12 (racemic) [Example 9, (Rac-cis-5a,9a)-4-(3-chlorobenzoyl)-5a,6,7,8,9,9a-hexahydropyrido[1,2-a]benzimidazol-1(5H)-one]
- IC50: 228 nM

Compound: CC1(C)Cn2c(c(C(=O)c3ccc(Cl)cc3)ccc2=O)N1 [Example 21]
- IC50: 1800 nM

Compound: O=C(c1ccccc1)c1ccc(=O)n2c1N[C@@H]1CCCC[C@@H]12 (racemic) [Example 3, (Rac-cis-5a,9a)-4-benzoyl-5a,6,7,8,9,9a-hexahydropyrido[1,2-a]benzimidazol-1(5H)-one]
- IC50: 455 nM

Compound: CC1(C)CNc2c(C(=O)c3ccc(F)cc3)ccc(=O)n2C1 [Example 24, 9-(4-Fluorobenzoyl)-3,3-dimethyl-1,2,3,4-tetrahydro-6H-pyrido[1,2-a]pyrimidin-6-one]
- IC50: 386 nM

Compound: O=C(c1ccc(F)cc1F)c1ccc(=O)n2c1N[C@H]1CCCC[C@@H]12 [Example 2-1, (5aS,9aS)-4-(2,4-difluorobenzoyl)-5a,6,7,8,9,9a-hexahydropyrido[1,2-a]benzimidazol-1(5H)-one]
- IC50: 164 nM

Compound: O=C(c1ccc(F)cc1F)c1ccc(=O)n2c1N[C@@H]1CCCC[C@@H]12 (racemic) [Example 1, (Rac-cis-5a,9a)-4-(2,4-difluorobenzoyl)-5a,6,7,8,9,9a-hexahydropyrido[1,2-a]benzimidazol-1(5H)-one]
- IC50: 340 nM
